In US20100234339A1, “SILVER(I) COMPOUNDS AND THEIR USE IN PHARMACEUTICAL COMPOSITIONS FOR THE TREATMENT,PROPHYLAXIS AND PREVENTION OF INFECTIONS” (priority 2007, published 2010):

Tests used:
S. aureus 1 = experiment: MIC, broth microdilution (NCCLS); format: cell-based; conditions: Gram positive; resistant clinical isolate from diabetic foot ulcer; MHB 24 h 35° C.
Method: (§1) Their antimicrobial activity was established according to the recommendations of NCCLS, (National Committee for Clinical Laboratory Standards 1999, “Performance standards for antimicrobial susceptibility testing. NCCLS approved standard M100-S9” Wayne, Pa.) by the use of a broth microdilution method. Minimum inhibitory concentrations (MICs) for the tested compound were conducted using 12 different pathogens clinically isolated from diabetic foot ulcers and are all resistant strains for at least 10 antibiotics used for diabetic foot ulcer treatment. S. aureus 1, 2 and 3 and S. pyogenes 1, 2 and 3 as […] bacteria and P. mirabilis 1, 2 and 3 and Ps. aeruginosa 1, 2 and 3 as […] bacteria. The test materials were dissolved in DMSO. The highest concentration used was 256 μg/ml. The inoculum was 10^5CFU/ml for bacteria and 10^4CFU/ml for the yeast. Bacteria were cultured in Mueller Hinton Broth (MHB) for 24 h at 35° C. and the yeast in Glucose Peptone Broth (GPB) for 48 h at 30° C. MIC value was corresponding to the lowest concentration that inhibited the bacterial growth.
(§2) For the following seven samples, MICs values were determined and the antimicrobial activity is inversely proportional to this value. Concentrations used in this screening were: 1, 2, 4, 8, 16, 32, 64, 128 and 256 (μg/ml). 1 μg/ml corresponds to a 10^−4% solution and an Ag(I) concentration of about 2·10^−6 mol/dm^3.

S. pyogenes 3 = experiment: MIC, broth microdilution (NCCLS); format: cell-based; conditions: Gram positive; resistant clinical isolate from diabetic foot ulcer; MHB 24 h 35° C.
Method: as §1, §2

S. aureus 3 = experiment: MIC, broth microdilution (NCCLS); format: cell-based; conditions: Gram positive; resistant clinical isolate from diabetic foot ulcer; MHB 24 h 35° C.
Method: as §1, §2

P. mirabilis 1 = experiment: MIC, broth microdilution (NCCLS); format: cell-based; conditions: Gram negative; resistant clinical isolate from diabetic foot ulcer; MHB 24 h 35° C.
Method: as §1, §2

S. aureus 2 = experiment: MIC, broth microdilution (NCCLS); format: cell-based; conditions: Gram positive; resistant clinical isolate from diabetic foot ulcer; MHB 24 h 35° C.
Method: as §1, §2

S. pyogenes 1 = experiment: MIC, broth microdilution (NCCLS); format: cell-based; conditions: Gram positive; resistant clinical isolate from diabetic foot ulcer; MHB 24 h 35° C.
Method: as §1, §2

P. mirabilis 2 = experiment: MIC, broth microdilution (NCCLS); format: cell-based; conditions: Gram negative; resistant clinical isolate from diabetic foot ulcer; MHB 24 h 35° C.
Method: as §1, §2

S. pyogenes 2 = experiment: MIC, broth microdilution (NCCLS); format: cell-based; conditions: Gram positive; resistant clinical isolate from diabetic foot ulcer; MHB 24 h 35° C.
Method: as §1, §2

P. mirabilis 3 = experiment: MIC, broth microdilution (NCCLS); format: cell-based; conditions: Gram negative; resistant clinical isolate from diabetic foot ulcer; MHB 24 h 35° C.
Method: as §1, §2

Ps. aeruginosa 1 = experiment: MIC, broth microdilution (NCCLS); format: cell-based; conditions: Gram negative; resistant clinical isolate from diabetic foot ulcer; MHB 24 h 35° C.
Method: as §1, §2

Solubility in DMSO = format: physicochemical; conditions: sparingly soluble

Compound | MIC S. aureus 1 (S. aureus 1) | MIC S. pyogenes 3 (S. pyogenes 3) | MIC S. aureus 3 (S. aureus 3) | MIC P. mirabilis 1 (P. mirabilis 1) | MIC S. aureus 2 (S. aureus 2) | MIC S. pyogenes 1 (S. pyogenes 1) | MIC P. mirabilis 2 (P. mirabilis 2) | MIC S. pyogenes 2 (S. pyogenes 2) | MIC P. mirabilis 3 (P. mirabilis 3) | MIC Ps. Aeruginosa 1 (Ps. aeruginosa 1) | solubility in DMSO (Solubility in DMSO)
COC(=O)c1ccncc1.O=[N+]([O-])[O-].[Ag+] [Compound 4, [Ag(methylisonicotinate)2]NO3] | 16 µg/mL | 64 µg/mL | 8 µg/mL | 2 µg/mL | 32 µg/mL | 64 µg/mL | 1 µg/mL | 128 µg/mL | 2 µg/mL | 128 µg/mL | 3000 to 5000 µg/mL
Nc1ncccc1C(=O)O.Nc1ncccc1C(=O)O.O=[N+]([O-])[O-].O=[N+]([O-])[O-].[Ag+].[Ag+] [Compound 6, [Ag2-μ-O,O′(2-aminonicotinium)2](NO3)2] | 32 µg/mL | 256 µg/mL | 64 µg/mL | 64 µg/mL | 32 µg/mL | 128 µg/mL | 16 µg/mL | 256 µg/mL | 32 µg/mL | 8 µg/mL | –
CCOC(=O)c1ccncc1.O=[N+]([O-])[O-].[Ag+] [Compound 3, [Ag(ethylisonicotinato)2]NO3] | 8 µg/mL | 16 µg/mL | 16 µg/mL | 8 µg/mL | 4 µg/mL | 32 µg/mL | 2 µg/mL | 16 µg/mL | 16 µg/mL | 32 µg/mL | 3000 to 5000 µg/mL
CCOC(=O)c1cccnc1.O=[N+]([O-])[O-].[Ag+] [Compound 2, [Ag(ethylnicotinate)2]NO3] | 16 µg/mL | 2 µg/mL | 4 µg/mL | 128 µg/mL | 4 µg/mL | 2 µg/mL | 128 µg/mL | 4 µg/mL | 256 µg/mL | 64 µg/mL | 3000 to 5000 µg/mL
